Assay results published in patent US20240150423A1, “GLP-1 ANALOGUE-MODIFIED DIMERS WITH DIFFERENT CONFIGURATIONS, PREPARATION METHOD THEREOF, AND APPLICATION THEREOF IN TREATMENT OF TYPE II DIABETES” (Nanjing Finepeptide Biopharmaceutical Co.,Ltd, priority 2019, published 2024).
Non-standard residues stand in square brackets, D forms with d. No end group written: not given here. Aib = CC(C)(N)C(=O)O

Test system: Normal Kunming (KM) mice
Assay: multiple OGTT (mOGTT): hypoglycemic duration after a single administration
Format: in vivo
Conditions: monomeric peptides, single injection at the same dose (1.126 nmol), subcutaneous
Method in brief: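 Tail blood glucose was followed by meter in normal KM mice after one dosing and glucose gavage, at 0, 10, 20, 40, 60 and 120 min. Measurement stopped when the treated mean rose above the NaCl group twice; the period before that is the effective duration.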

Substance | Hypoglycemic [days] | Hypoglycemic (day)
His-Ala-Glu-Gly-Thr-Phe-Thr-Ser-Asp-Val-Ser-Cys--Tyr-Leu-Glu-Gly-Gln-Ala-Ala-Lys[N-ϵ-(N-α-oleoyl-L-γ-glutamyl)]-Glu-Phe-Ile-Ala-Trp-Leu-Val-Arg-Gly-Arg-Gly-NH2 (HAEGTFTSDVSCYLEGQAAXEFIAWLVRGRG; oleoyl-γ-glutamyl on Lys; C-terminal amide; Sequence is synthesized; (20)..(20) Xaa is 26Lys[N-e-(N-a-oleoyl-L-g-glutamyl)]; (31)..(31) N-terminal) [G3 series 23] | 7 | –
His-Ala-Glu-Gly-Thr-Phe-Thr-Ser-Asp-Val-Ser-Cys-Tyr-Leu-Glu-Gly-Gln-Ala-Ala-Lys-Glu-Phe-Ile-Ala-Trp-Leu-Val-Arg-Gly-Arg-NH-PEG (HAEGTFTSDVSCYLEGQAAKEFIAWLVRGR; not fully specified; C-terminal PEG; Sequence is synthesized; (30)..(30) N-terminal is modified with PEG) [G9 series 71] | 3 | –
His-Ala-Glu-Gly-Thr-Phe-Thr-Ser-Asp-Val-Ser-Cys-Tyr-Leu-Glu-Gly-Gln-Ala-Ala-Lys[N-ϵ-(N-α-Palmitoyl)]-Glu-Phe-Ile-Ala-Trp-Leu-Val-Arg-Gly-Arg-Gly-NH2 (HAEGTFTSDVSCYLEGQAAXEFIAWLVRGRG; palmitoyl on Lys side chain; C-terminal amide; Sequence is synthesized; (20)..(20) Xaa is 26Lys[N-e-(N-a-palmitoyl-L-g-glutamyl)]; (31)..(31) N-terminal) [G4 series 35] | 6 | –
His-Ala-Glu-Gly-Thr-Phe-Thr-Ser-Asp-Val-Ser-Cys-Tyr-Leu-Glu-Gly-Gln-Ala-Ala-Lys[N-ϵ-(N-α-Palmitoyl)]-Glu-Phe-Ile-Ala-Trp-Leu-Val-Arg-Gly-Arg-Gly-OH (HAEGTFTSDVSCYLEGQAAXEFIAWLVRGRG; not fully specified; palmitoyl on Lys side chain; C-terminal acid; Sequence is synthesized; (20)..(20) Xaa is 26Lys[N-e-(N-a-palmitoyl-L-g-glutamyl)]; (31)..(31) C-terminal) [G4 series 34] | 4 | –
His-Ala-Glu-Gly-Thr-Phe-Thr-Ser-Asp-Val-Ser-Cys-Tyr-Leu-Glu-Gly-Gln-Ala-Ala-Lys[N-ϵ-(N-α-Palmitoyl-L-γ-glutamyl)]-Glu-Phe-Ile-Ala-Trp-Leu-Val-Arg-Gly-Arg-Gly-NH2 (HAEGTFTSDVSCYLEGQAAXEFIAWLVRGRG; palmitoyl-γ-glutamyl on Lys; C-terminal amide; Sequence is synthesized; (20)..(20) Xaa is 26Lys[N-e-(N-a-palmitoyl-L-g-glutamyl)]; (31)..(31) N-terminal) [G3 series 22] | 6 | –
His-Ala-Glu-Gly-Thr-Phe-Thr-Ser-Asp-Val-Ser-Cys-Tyr-Leu-Glu-Gly-Gln-Ala-Ala-Lys[N-ϵ-(N-α-Palmitoyl-L-γ-glutamyl)]-Glu-Phe-Ile-Ala-Trp-Leu-Val-Lys[N-ϵ-(N-α-Palmitoyl-L-γ-glutamyl)]-Gly-Arg-Gly-NH2 (HAEGTFTSDVSCYLEGQAAXEFIAWLVXGRG; two palmitoyl-gamma-Glu on Lys; C-terminal amide; Sequence is synthesized; (20)..(20) Xaa is 26Lys[N-e-(N-a-palmitoyl-L-g-glutamyl)]; (28)..(28) Xaa is 26Lys[N-e-(N-a-palmitoyl-L-g-glutamyl)]; (31)..(31) N-terminal) [G5 series 41] | 3 | –
His-Ala-Glu-Gly-Thr-Phe-Thr-Ser-Asp-Val-Ser-Cys-Tyr-Leu-Glu-Gly-Gln-Ala-Ala-Lys[N-ϵ-(N-α-Palmitoyl-L-γ-glutamyl)]-Glu-Phe-Ile-Ala-Trp-Leu-Val-Lys[N-ϵ-(N-α-Palmitoyl-L-γ-glutamyl)]-Gly-Arg-Gly-OH (HAEGTFTSDVSCYLEGQAAXEFIAWLVXGRG; two palmitoyl-gamma-Glu on Lys; C-terminal acid; Sequence is synthesized; (20)..(20) Xaa is 26Lys[N-e-(N-a-palmitoyl-L-g-glutamyl)]; (28)..(28) Xaa is 26Lys[N-e-(N-a-palmitoyl-L-g-glutamyl)]; (31)..(31) C-terminal) [G5 series 40] | 1 | –
His-Ala-Glu-Gly-Thr-Phe-Thr-Ser-Asp-Val-Ser-Cys-Tyr-Leu-Glu-Gly-Gln-Ala-Ala-Lys[N-ϵ-(N-α-oleoyl)]-Glu-Phe-Ile-Ala-Trp-Leu-Val-Arg-Gly-Arg-Gly-NH2 (HAEGTFTSDVSCYLEGQAAXEFIAWLVRGRG; not fully specified; oleoyl on Lys; C-terminal amide; Sequence is synthesized; (20)..(20) Xaa is 26Lys[N-e-(N-a-oleoyl-L-g-glutamyl)]; (31)..(31) N-terminal) [G4 series 33] | 7 | –
His-Ala-Glu-Gly-Thr-Phe-Thr-Ser-Asp-Val-Ser-Cys-Tyr-Leu-Glu-Gly-Gln-Ala-Ala-Lys[N-ϵ-(N-α-oleoyl)]-Glu-Phe-Ile-Ala-Trp-Leu-Val-Arg-Gly-Arg-Gly-OH (HAEGTFTSDVSCYLEGQAAXEFIAWLVRGRG; not fully specified; oleoyl on Lys; C-terminal acid; Sequence is synthesized; (20)..(20) Xaa is 26Lys[N-e-(N-a-oleoyl-L-g-glutamyl)]; (31)..(31) C-terminal) [G4 series 32] | 5 | –
His-Ala-Glu-Gly-Thr-Phe-Thr-Ser-Asp-Val-Ser-Cys-Tyr-Leu-Glu-Gly-Gln-Ala-Ala-Lys[N-ϵ-(N-α-oleoyl-L-γ-glutamyl)]-Glu-Phe-Ile-Ala-Trp-Leu-Val-Arg-Gly-Arg-Gly-OH (HAEGTFTSDVSCYLEGQAAXEFIAWLVRGRG; oleoyl-γ-glutamyl on Lys; C-terminal acid; Sequence is synthesized; (20)..(20) Xaa is 26Lys[N-e-(N-a-oleoyl-L-g-glutamyl)]; (31)..(31) C-terminal) [G3 series 21] | 4 | –
His-Ala-Glu-Gly-Thr-Phe-Thr-Ser-Asp-Val-Ser-Ser-Tyr-Leu-Glu-Gly-Gln-Ala-Ala-Lys[N-ϵ-(N-α-Palmitoyl-γ-glutamyl)]-Glu-Phe-Ile-Ala-Trp-Leu-Val-Arg-Gly-Arg-Gly-Cys-OH (HAEGTFTSDVSSYLEGQAAXEFIAWLVRGRGC; palmitoyl-γ-glutamyl on Lys; C-terminal acid; Sequence is synthesized; (20)..(20) Xaa is 26Lys[N-e-(N-a-Palmitoyl-g-glutamyl)]; (32)..(32) C-terminal) [G1] | – | No hypoglycemic
His-Ala-Glu-Gly-Thr-Phe-ThrCys-Asp-Val-Ser-Ser-Tyr-Leu-Glu-Gly-Gln-Ala-Ala-Lys[N-ϵ-(N-α-oleoyl-L-γ-glutamyl)]-Glu-Phe-Ile-Ala-Trp-Leu-Val-Arg-Gly-Arg-Gly-OH (HAEGTFTCDVSSYLEGQAAXEFIAWLVRGRG; oleoyl-gamma-Glu on Lys; C-terminal acid; Sequence is synthesized; (20)..(20) Xaa is 26Lys[N-e-(N-a-oleoyl-L-g-glutamyl)]; (31)..(31) C-terminal) [G8 series 58] | 1 | –
His-aAib-Glu-Gly-Thr-Phe-Thr-Cys-Asp-Val-Ser-Ser-Tyr-Leu-Glu-Gly-Gln-Ala-Ala-Lys-Glu-Phe-Ile-Ala-Trp-Leu-Val-Arg-aAib-Arg-NH2 (H[Aib]EGTFTCDVSSYLEGQAAKEFIAWLVR[Aib]R-NH2; N-terminus assumed; SMILES CC[C@H](C)[C@H](NC(=O)[C@H](Cc1ccccc1)NC(=O)[C@H](CCC(=O)O)NC(=O)[C@H](CCCCN)NC(=O)[C@H](C)NC(=O)[C@H](C)NC(=O)[C@H](CCC(N)=O)NC(=O)CNC(=O)[C@H](CCC(=O)O)NC(=O)[C@H](CC(C)C)NC(=O)[C@H](Cc1ccc(O)cc1)NC(=O)[C@H](CO)NC(=O)[C@H](CO)NC(=O)[C@@H](NC(=O)[C@H](CC(=O)O)NC(=O)[C@H](CS)NC(=O)[C@@H](NC(=O)[C@H](Cc1ccccc1)NC(=O)[C@@H](NC(=O)CNC(=O)[C@H](CCC(=O)O)NC(=O)C(C)(C)NC(=O)[C@@H](N)Cc1c[nH]cn1)[C@@H](C)O)[C@@H](C)O)C(C)C)C(=O)N[C@@H](C)C(=O)N[C@@H](Cc1c[nH]c2ccccc12)C(=O)N[C@@H](CC(C)C)C(=O)N[C@H](C(=O)N[C@@H](CCCNC(=N)N)C(=O)NC(C)(C)C(=O)N[C@@H](CCCNC(=N)N)C(N)=O)C(C)C) [G8 series 64] | 2 | –
His-aAib-Glu-Gly-Thr-Phe-Thr-Cys-Asp-Val-Ser-Ser-Tyr-Leu-Glu-Gly-Gln-Ala-Ala-Lys-Glu-Phe-Ile-Ala-Trp-Leu-Val-Lys-aAib-Arg-NH2 (H[Aib]EGTFTCDVSSYLEGQAAKEFIAWLVK[Aib]R-NH2; N-terminus assumed; SMILES CC[C@H](C)[C@H](NC(=O)[C@H](Cc1ccccc1)NC(=O)[C@H](CCC(=O)O)NC(=O)[C@H](CCCCN)NC(=O)[C@H](C)NC(=O)[C@H](C)NC(=O)[C@H](CCC(N)=O)NC(=O)CNC(=O)[C@H](CCC(=O)O)NC(=O)[C@H](CC(C)C)NC(=O)[C@H](Cc1ccc(O)cc1)NC(=O)[C@H](CO)NC(=O)[C@H](CO)NC(=O)[C@@H](NC(=O)[C@H](CC(=O)O)NC(=O)[C@H](CS)NC(=O)[C@@H](NC(=O)[C@H](Cc1ccccc1)NC(=O)[C@@H](NC(=O)CNC(=O)[C@H](CCC(=O)O)NC(=O)C(C)(C)NC(=O)[C@@H](N)Cc1c[nH]cn1)[C@@H](C)O)[C@@H](C)O)C(C)C)C(=O)N[C@@H](C)C(=O)N[C@@H](Cc1c[nH]c2ccccc12)C(=O)N[C@@H](CC(C)C)C(=O)N[C@H](C(=O)N[C@@H](CCCCN)C(=O)NC(C)(C)C(=O)N[C@@H](CCCNC(=N)N)C(N)=O)C(C)C) [G8 series 65] | 2 | –
His-aAib-Glu-Gly-Thr-Phe-Thr-Cys-Asp-Val-Ser-Ser-Tyr-Leu-Glu-Gly-Gln-Ala-Ala-Lys[N-ϵ-(N-α-Palmitoyl-γ-glutamyl)]-Glu-Phe-Ile-Ala-Trp-Leu-Val-Arg-Gly-Arg-Gly-NH2 (HXEGTFTCDVSSYLEGQAAXEFIAWLVRGRG; Aib; palmitoyl-gamma-Glu on Lys; C-terminal amide; Sequence is synthesized; (2)..(2) Xaa is aAib; (20)..(20) Xaa is 26Lys[N-e-(N-a-palmitoyl-L-g-glutamyl)]; (31)..(31) N-terminal) [G8 series 61] | 4 | –
